Data reported in the supplement of paper PMC4862054.
“And” between values parts separate entries of the source, which are not always exact repeats. Equal values may be shown once.

Legend:
Assay in all cases: normalised viability (% of control), CellTiter-Blue; higher = more viable cells (about 100 = DMSO control)
Conditions in all cases: incubation time: 72 h
CAL-148 = system: CAL-148
Procedure: (§1)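 DSRT, CellTiter-Blue viability, 72 h incubation. Signal is normalised to DMSO and benzethonium chloride controls. Value is the normalised response at dose 6.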

CAL-51 = system: CAL-51
Procedure: as §1

CAL-85-1 = system: CAL-85-1
Procedure: as §1

DU-4475 = system: DU-4475
Procedure: as §1

HDQ-P1 = system: HDQ-P1
Procedure: as §1

MDA-MB-453 = system: MDA-MB-453
Procedure: as §1

SMILES	normalised viability (CAL-148)	normalised viability (CAL-51)	normalised viability (CAL-85-1)	normalised viability (DU-4475)	normalised viability (HDQ-P1)	normalised viability (MDA-MB-453)
COc1cc2/c(=N/c3ccc(Br)cc3F)nc[nH]c2cc1OCC1CCN(C)CC1 [Vandetanib] (300 nM)	90.7%	89.6%	83.7%	101%	31.4%	97.5%
COCC[n+]1c2c(n(Cc3cnccn3)c1C)C(=O)c1ccccc1C2=O [YM155] (300 nM)	1.6%	2.3%	1.89%	10.8%	-0.08%	10.9%
CO[C@H]1C[C@@H]2CC[C@@H](C)[C@@](O)(O2)C(=O)C(=O)N2CCCC[C@H]2C(=O)O[C@H]([C@H](C)C[C@@H]2CC[C@@H](OP(C)(C)=O)[C@H](OC)C2)CC(=O)[C@H](C)/C=C(\C)[C@@H](O)[C@@H](OC)C(=O)[C@H](C)C[C@H](C)/C=C/C=C/C=C/1C [Ridaforolimus] (30 nM)	40.8%	37.9%	53.8%	54%	72.4%	27.9%
NC(=O)c1ccc(I)c([N+](=O)[O-])c1 [Iniparib] (300 nM)	89.2%	98.7%	88.8%	84%	87.2%	95.2%
COC(=O)c1ccc2c(c1)NC(=O)/C2=C(\Nc1ccc(N(C)C(=O)CN2CCN(C)CC2)cc1)c1ccccc1 [BIBF 1120] (300 nM)	96.1%	93.9%	111%	91.9%	100%	105%
O=C(Nc1ccncc1)C(=O)c1cn(Cc2ccc(Cl)cc2)c2ccccc12 [Indibulin] (300 nM)	95.7%	71.3%	55.8%	115%	30.7%	41.4%
S=P(N1CC1)(N1CC1)N1CC1 [Thio-TEPA] (3000 nM)	91.2%	94.8%	96.8%	92.2%	90.4%	95.5%
CN(C)c1nc(N(C)C)nc(N(C)C)n1 [Altretamine] (300 nM)	112%	108%	95.9%	110%	88.5%	112%
CCc1c2c(nc3ccc(OC(=O)N4CCC(N5CCCCC5)CC4)cc13)-c1cc3c(c(=O)n1C2)COC(=O)[C@]3(O)CC [Irinotecan] (300 nM)	82.5% and 96.9%	101% and 105%	81.2% and 99.8%	74.1% and 85.6%	64.5% and 88.1%	97.6% and 103%
Nc1cc(C(F)(F)F)c(-c2cc(N3CCOCC3)nc(N3CCOCC3)n2)cn1 [BKM-120] (300 nM)	92.5%	78.4%	81.2%	102%	71.9%	71.2%
COc1cc2ncnc(Nc3ccc(F)c(Cl)c3)c2cc1OCCCN1CCOCC1 [Gefitinib] (300 nM)	95.6% and 84.7%	104% and 106%	69.8% and 65.9%	83.8% and 84.4%	64% and 66.2%	98.2% and 83.2%
O=P1(N(CCCl)CCCl)NCCCO1 (centres undefined) [Cyclophosphamide] (1200 nM)	107%	106%	108%	96.2%	81.5%	112%
c1ccc2c(CCNc3ccc(Nc4ccncc4)cc3)c[nH]c2c1 [Serdemetan] (300 nM)	87.6%	108%	87.7%	87.6%	57.9%	109%
O=C(Nc1cccnc1)N1CCC(Cc2cccc(Oc3ccc(C(F)(F)F)cn3)c2)CC1 [PF-3845] (300 nM)	103%	97.9%	93%	95.4%	127%	98.4%
